According to US20250161288A1, “MULTIMERIZER PHARMACEUTICAL COMPOSITIONS” (PONCE THERAPEUTICS, INC., priority 2022, published 2025):

Experiments:
[1] = class IV characterisation, aqueous solubility; cited from earlier work
[2] = format: physicochemical
Description: As such, rimiducid is categorized as a biopharmaceutical classification system (BCS) class IV drug. Although there are exceptions, BCS class IV compounds generally are viewed as poor candidates for oral delivery (Markovic et al., Pharmaceutics 2020, 12(12), 1175. doi.org/10.3390/pharmaceutics12121175). For a compound to be absorbed, it must first be in solution. […] Once solubilized, rimiducid must cross the plasma membranes of the intestinal tract to be absorbed. […] Because of the molecular weight of 1411.6 Da, passive absorption of rimiducid through the intestinal aqueous porin channels is unlikely (Dahlgren et al., Pharmaceutics. 2019; 11(8):411. Published 2019 Aug. 13. doi:10.3390/pharmaceutics11080411).

[3] = Drug Bank Online; cited from earlier work

theoretical maximal solubility of rimiducid within the upper GI tract [2]: less than 250 μg
Compound: CC[C@H](C(=O)N1CCCC[C@H]1C(=O)O[C@H](CCc1ccc(OC)c(OC)c1)c1cccc(OCC(=O)NCCNC(=O)COc2cccc([C@@H](CCc3ccc(OC)c(OC)c3)OC(=O)[C@@H]3CCCCN3C(=O)[C@@H](CC)c3cc(OC)c(OC)c(OC)c3)c2)c1)c1cc(OC)c(OC)c(OC)c1 [Rimiducid, rimiducid]
volume required to dissolve an effective dose [1]: greater than 250 milliliters
water solubility [3]: less than 0.5 μg/mL
